The values below come from patent US20250312499A1, “KISSPEPTIN RECEPTOR (KISS1R) TARGETED THERAPEUTICS AND USES THEREOF” (priority 2024, published 2025).

Numbered stars: 1 amine (or outer) side, 2 acyl side, 3 side chain; on linkers, the order of the positions; unused ones are H or OH. Square brackets hold non-standard residues; d marks the D form. Peptide text beside a SMILES is read from it. * marks the point of attachment. DOTA = O=C(O)CN1CCN(CC(=O)O)CCN(CC(=O)*)CCN(CC(=O)O)CC1; Ala(9-anthryl) = N[C@@H](Cc1c2ccccc2cc2ccccc12)C(=O)O; Gly(N-(3-F-4-Me-benzyl)) = Cc1ccc(CNCC(=O)*)cc1F; X16 = O=C(c1ccc(-c2ccccc2)c(OCCCN[*:1])c1)[*:2]; Gly(Nα-4-MeO-benzyl) = COc1ccc(CNCC(=O)*)cc1; X4 = O=C(c1ccc(-c2ccccc2OCCCN[*:1])cc1)[*:2]; Api(1-amidino) = N=C(N)N1CCC(N)(C(=O)O)CC1; X1 = O=C(CN1CCC(N[*:1])CC1)[*:2]; 4Pal = N[C@@H](Cc1ccncc1)C(=O)O; 2Thi = N[C@@H](Cc1cccs1)C(=O)O; 4Amb = NCc1ccc(C(=O)O)cc1; Octanoyl = CCCCCCCC(=O)*; Api = NC1(C(=O)O)CCNCC1; Ahx = NCCCCCC(=O)O; azaGly = NNC(=O)O Where only a bound is given, the exact number is not on record here.

Sequence of human kisspeptin receptor (Q969F8 whole entry): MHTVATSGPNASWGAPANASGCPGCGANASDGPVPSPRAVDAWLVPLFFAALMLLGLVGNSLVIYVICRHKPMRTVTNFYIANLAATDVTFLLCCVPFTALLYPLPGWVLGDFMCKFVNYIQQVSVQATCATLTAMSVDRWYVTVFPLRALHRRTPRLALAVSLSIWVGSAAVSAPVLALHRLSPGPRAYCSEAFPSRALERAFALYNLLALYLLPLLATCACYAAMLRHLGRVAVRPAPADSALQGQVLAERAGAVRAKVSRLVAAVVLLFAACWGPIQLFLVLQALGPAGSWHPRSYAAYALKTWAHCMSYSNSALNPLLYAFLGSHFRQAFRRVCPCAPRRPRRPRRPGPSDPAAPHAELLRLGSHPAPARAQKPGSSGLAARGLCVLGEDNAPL

This experiment has as its target human kisspeptin receptor (Homo sapiens (Human), UniProt Q969F8). Put plainly: Human KISS1R binding assay (membrane competition binding). Particulars: 90 min at room temperature; competition with 0.2 nM [125I]-metastin (45-54); Flp-In T-Rex 293 kisspeptin membranes; metal complexes nonradioactive Ga, In, Lu; read-out: hKiSSR Binding Ki (90 min). The procedure, abridged: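 Radioligand competition: 0.2 nM [125I]-metastin (45-54) displaced by test ligand (usually 0–10,000 nM) over 90 min at room temperature, pH 7.4 buffer with 0.1% BSA. Receptor source is crude membrane (5–10 μg) from tetracycline-induced Flp-In T-Rex 293 cells. Bound label filtered and counted; Ki from non-linear regression.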
For the molecule `CSCC[C@H](NC(=O)c1ccc(CNC(=O)CN2CCN(CC(=O)O)CCN(CC(=O)O)CCN(CC(=O)O)CC2)cc1)C(=O)N[C@@H](Cc1ccccc1)C(=O)N[C@@H](CCCCNC(=O)CCCCC(=O)N[C@@H](Cc1ccccc1)C(=O)NNC(=O)N[C@@H](CC(C)C)C(=O)NC1(C(=O)N[C@@H](Cc2c[nH]c3ccccc23)C(N)=O)CCN(C(=O)CNCc2ccc(C)c(F)c2)CC1)C(=O)O` [Compound 203], the inhibitory constant (Ki) was < 10 nM. As for `Cc1ccc(CNCC(=O)N2CCC(NC(=O)[C@H](CC(C)C)n3cc([C@H](Cc4ccccc4)NC(=O)[C@@H](N)CCCCNC(=O)CN4CCN(CC(=O)O)CCN(CC(=O)O)CCN(CC(=O)O)CC4)nn3)(C(=O)N[C@@H](Cc3c[nH]c4ccccc34)C(N)=O)CC2)cc1F` [Compound 204], the Ki is > 100 nM.

Regarding `Cc1ccc(CNCC(=O)N2CCC(NC(=O)[C@H](CC(C)C)NC(=O)NNC(=O)[C@H](Cc3ccccc3)NC(=O)[C@@H](NC(=O)[C@H](CC(N)=O)NC(=O)c3ccc(CNC(=O)CN4CCN(CC(=O)O)CCN(CC(=O)O)CCN(CC(=O)O)CC4)cc3)[C@@H](C)O)(C(=O)N[C@@H](Cc3ccc(O)cc3)C(N)=O)CC2)cc1F` [Compound 205] ({DOTA-4Amb}-NTF[azaGly]L[Api](Gly(N-(3-F-4-Me-benzyl)))Y-NH2), the Ki was < 10 nM. In the case of `Cc1ccc(CNCC(=O)N2CCC(NC(=O)[C@H](CC(C)C)NC(=O)NNC(=O)[C@H](Cc3ccccc3)NC(=O)[C@@H](NC(=O)[C@H](CC(N)=O)NC(=O)[C@@H](CCC(=O)O)NC(=O)c3ccc(CNC(=O)CN4CCN(CC(=O)O)CCN(CC(=O)O)CCN(CC(=O)O)CC4)cc3)[C@@H](C)O)(C(=O)N[C@@H](Cc3ccc(O)cc3)C(N)=O)CC2)cc1F` [Compound 206] ({DOTA-4Amb}-[dE]NTF[azaGly]L[Api](Gly(N-(3-F-4-Me-benzyl)))Y-NH2) it was < 10 nM; in that of `Cc1ccc(CNCC(=O)N2CCC(NC(=O)[C@H](CC(C)C)NC(=O)NNC(=O)[C@H](Cc3ccccc3)NC(=O)[C@@H](NC(=O)[C@H](CC(N)=O)NC(=O)c3ccc(CNC(=O)[C@H](Cc4ccc(O)cc4)NC(=O)CNC(=O)CN4CCN(CC(=O)O)CCN(CC(=O)O)CCN(CC(=O)O)CC4)cc3)[C@@H](C)O)(C(=O)N[C@@H](Cc3c[nH]c4ccccc34)C(N)=O)CC2)cc1F` [Compound 213] ({DOTA}-GY[4Amb]NTF[azaGly]L[Api](Gly(N-(3-F-4-Me-benzyl)))W-NH2), < 10 nM.

Turning to `Cc1ccc(CNCC(=O)N2CCC(NC(=O)c3ccc(-c4ccccc4)c(OCCNC(=O)[C@H](Cc4ccccc4)NC(=O)CN4CCC(NC(=O)CN5CCN(CC(=O)O)CCN(CC(=O)O)CCN(CC(=O)O)CC5)CC4)c3)(C(=O)N[C@@H](Cc3c[nH]c4ccccc34)C(N)=O)CC2)cc1F` [Compound 214], the inhibition constant Ki is < 10 nM. In the case of `Cc1ccc(CNCC(=O)N2CCC(NC(=O)c3cc(OCCNC(=O)[C@H](Cc4ccccc4)NC(=O)CN4CCC(NC(=O)CN5CCN(CC(=O)O)CCN(CC(=O)O)CCN(CC(=O)O)CC5)CC4)cc(-c4ccccc4)c3)(C(=O)N[C@@H](Cc3c[nH]c4ccccc34)C(N)=O)CC2)cc1F` [Compound 215] it was > 100 nM. In the case of `Cc1ccc(CNCC(=O)N2CCC(NC(=O)[C@H](CC(C)C)NC(=O)NNC(=O)c3ccc(-c4ccccc4)c(OCCCNC(=O)CN4CCC(NC(=O)CN5CCN(CC(=O)O)CCN(CC(=O)O)CCN(CC(=O)O)CC5)CC4)c3)(C(=O)N[C@@H](Cc3c[nH]c4ccccc34)C(N)=O)CC2)cc1F` [Compound 216] ({DOTA}-[X1][X16][azaGly]L[Api](Gly(N-(3-F-4-Me-benzyl)))W-NH2) it was < 10 nM. In the case of `Cc1ccc(CNCC(=O)N2CCC(NC(=O)[C@H](CC(C)C)NC(=O)NNC(=O)c3ccc(-c4ccccc4OCCCNC(=O)CN4CCC(NC(=O)CN5CCN(CC(=O)O)CCN(CC(=O)O)CCN(CC(=O)O)CC5)CC4)cc3)(C(=O)N[C@@H](Cc3c[nH]c4ccccc34)C(N)=O)CC2)cc1F` [Compound 217] ({DOTA}-[X1][X4][azaGly]L[Api](Gly(N-(3-F-4-Me-benzyl)))W-NH2) it was < 10 nM; in that of `Cc1ccc(CNCC(=O)N2CCC(NC(=O)[C@H](CC(C)C)NC(=O)NNC(=O)[C@H](Cc3cccs3)NC(=O)[C@@H](NC(=O)[C@H](CC(N)=O)NC(=O)[C@H](CCC(=O)O)NC(=O)CN3CCC(NC(=O)CN4CCN(CC(=O)O)CCN(CC(=O)O)CCN(CC(=O)O)CC4)CC3)[C@@H](C)O)(C(=O)N[C@@H](Cc3c[nH]c4ccccc34)C(N)=O)CC2)cc1F` [Compound 218] ({DOTA}-[X1]ENT[2Thi][azaGly]L[Api](Gly(N-(3-F-4-Me-benzyl)))W-NH2), < 10 nM. For `CC(C)C[C@H](NC(=O)NNC(=O)[C@H](Cc1ccccc1)NC(=O)[C@@H](NC(=O)[C@H](CC(N)=O)NC(=O)[C@H](Cc1c2ccccc2cc2ccccc12)NC(=O)[C@@H](Cc1ccc(O)cc1)NC(=O)CN1CCN(CC(=O)O)CCN(CC(=O)O)CCN(CC(=O)O)CC1)[C@@H](C)O)C(=O)NC1(C(=O)N[C@@H](Cc2ccncc2)C(N)=O)CCN(C(=N)N)CC1` [Compound 221] ({DOTA}-[dY][Ala(9-anthryl)]NTF[azaGly]L[Api(1-amidino)][4Pal]-NH2), the inhibition constant (Ki) was < 10 nM. The result for `CC(C)C[C@H](NC(=O)NNC(=O)[C@H](Cc1ccccc1)NC(=O)[C@@H](NC(=O)[C@H](CC(N)=O)NC(=O)[C@H](Cc1c2ccccc2cc2ccccc12)NC(=O)[C@@H](Cc1ccc(O)cc1)NC(=O)CCCCCNC(=O)CN1CCN(CC(=O)O)CCN(CC(=O)O)CCN(CC(=O)O)CC1)[C@@H](C)O)C(=O)NC1(C(=O)N[C@@H](Cc2ccncc2)C(N)=O)CCN(C(=N)N)CC1` [Compound 222] ({DOTA-Ahx}-[dY][Ala(9-anthryl)]NTF[azaGly]L[Api(1-amidino)][4Pal]-NH2) reads < 10 nM. With `CCCCCCCC(=O)N[C@@H](CCCCNC(=O)CN1CCN(CC(=O)O)CCN(CC(=O)O)CCN(CC(=O)O)CC1)C(=O)N[C@@H](CC(N)=O)C(=O)N[C@H](C(=O)N[C@@H](Cc1ccccc1)C(=O)NNC(=O)N[C@@H](CC(C)C)C(=O)NC1(C(=O)N[C@@H](Cc2ccncc2)C(N)=O)CCN(C(=N)N)CC1)[C@@H](C)O` [Compound 226] (Octanoyl-K(DOTA)NTF[azaGly]L[Api(1-amidino)][4Pal]-NH2), the inhibition constant Ki was in the range of 10 to 100 nM. In the case of `Cc1ccc(CNCC(=O)N2CCC(NC(=O)[C@H](CC(C)C)NC(=O)NNC(=O)[C@H](Cc3ccccc3)NC(=O)[C@@H](NC(=O)CN3CCC(NC(=O)CN4CCN(CC(=O)O)CCN(CC(=O)O)CCN(CC(=O)O)CC4)CC3)[C@@H](C)O)(C(=O)N[C@@H](Cc3c[nH]c4ccccc34)C(N)=O)CC2)cc1F` [Compound 233] ({DOTA}-[X1]TF[azaGly]L[Api](Gly(N-(3-F-4-Me-benzyl)))W-NH2) it was < 10 nM; in that of `Cc1ccc(CNCC(=O)N2CCC(NC(=O)[C@H](CC(C)C)NC(=O)NNC(=O)[C@H](Cc3ccccc3)NC(=O)[C@@H](NC(=O)[C@H](CCC(=O)O)NC(=O)CN3CCC(NC(=O)CN4CCN(CC(=O)O)CCN(CC(=O)O)CCN(CC(=O)O)CC4)CC3)[C@@H](C)O)(C(=O)N[C@@H](Cc3c[nH]c4ccccc34)C(N)=O)CC2)cc1F` [Compound 234] ({DOTA}-[X1]ETF[azaGly]L[Api](Gly(N-(3-F-4-Me-benzyl)))W-NH2), < 10 nM; in that of `COc1ccc(CNCC(=O)N2CCC(NC(=O)[C@H](CC(C)C)NC(=O)NNC(=O)[C@H](Cc3ccccc3)NC(=O)[C@@H](NC(=O)[C@H](CC(N)=O)NC(=O)CCCCCNC(=O)CN3CCN(CC(=O)O)CCN(CC(=O)O)CCN(CC(=O)O)CC3)[C@@H](C)O)(C(=O)N[C@@H](Cc3ccccc3)C(N)=O)CC2)cc1` [Compound 235] ({DOTA-Ahx}-NTF[azaGly]L[Api](Gly(Nα-4-MeO-benzyl))F-NH2), < 10 nM.
